Read-outs that look alike come from different tables or passages of the source.
How the values were obtained:
Assay in all cases: Glioma cell viability (MTT) under XRT-TMZ with or without CRAd-S-pk7
GBM39 = format: cell-based; details: Homo sapiens, treated with XRT (2 Gy) simultaneously
Description: FIGS. 44A and 44B show the optimization of combination therapy in vitro according to one embodiment. (FIG. 44A): Cytotoxicity of U251 and U87 glioma cell lines and GBM39 patient-derived cell line treated with Rx-OV or OV-Rx. Left: The percentage of viability of glioma cells measured by 3-(4,5-dimethylthiazol-2-yl)-2,5-diphenyltetrazolium bromide 96 hours after treatment. Right: Representative light microscope pictures of U87 glioma cell viability (magnification, ×10). (FIG. 44B): Percentage of apoptotic GBM43 cells at 48 hours after treatment with Rx-OV or OV-Rx treatment protocols as measured by the expression of active caspase-3-positive tumor cells by FACS (bottom). […]
A green fluorescent protein (GFP) expressing HB1.F3-CD cell line was generated as described elsewhere (Ahmed et al. 2011a). […] Following lysate preparation, the mean fluorescence intensity (MFI) was estimated for each group of cocultured cells using the GloMax 20/20 Luminometer (Promega). […] U251, U87, and GBM39 cell viability was determined using 3-(4,5-dimethylthiazol-2-yl)-2,5-diphenyltetrazolium bromide (MTT) cell proliferation kit (Roche Diagnostics, Mannheim, Germany, http://www.roche-applied-science.com). The viability was subsequently determined by MTT as described by the manufacturer's protocol. Cell viability was expressed as the percentage of cells alive compared with the dimethyl sulfoxide-treated control. […]

U251 = format: cell-based, human; details: for IC50: Homo sapiens, U-251
Description: (§1) FIGS. 42A and 42B illustrate antitumor effects of CRAd-Survivin-pk7 (CRAd-S-pk7)-loaded NSCs and their combination with XRT-TMZ against glioma cell lines in vitro according to one embodiment. (FIG. 42A): Cytotoxicity of patient-derived GBM43 tumor cells 96 hours after coculture with CRAd-S-pk7-loaded NSCs at the NSC to GBM43 cell ratios of 1:0, 1:2, 1:5, 1:10, or 1:50. Top: Representative light microscope pictures of GBM43 viability. Bottom: Mean luciferase intensity values represented as the percentages of viable glioma cells compared with control. (FIG. 42B): U251 and U87 glioma cell viability measured by 3-(4,5-dimethylthiazol-2-yl)-2,5-diphenyltetrazolium bromide at 96 hours after treatment. The addition of CRAd-S-pk7 (50 infectious units) to conventional XRT-TMZ therapy reduced the percentage of glioma cell viability in both tested cell lines. […] Abbreviations: NSC, neural stem cell; OV, oncolytic virus; TMZ, temozolomide; XRT, radiation therapy.
(§2) FIGS. 44A and 44B show the optimization of combination therapy in vitro according to one embodiment. (FIG. 44A): Cytotoxicity of U251 and U87 glioma cell lines and GBM39 patient-derived cell line treated with Rx-OV or OV-Rx. Left: The percentage of viability of glioma cells measured by 3-(4,5-dimethylthiazol-2-yl)-2,5-diphenyltetrazolium bromide 96 hours after treatment. Right: Representative light microscope pictures of U87 glioma cell viability (magnification, ×10). (FIG. 44B): Percentage of apoptotic GBM43 cells at 48 hours after treatment with Rx-OV or OV-Rx treatment protocols as measured by the expression of active caspase-3-positive tumor cells by FACS (bottom). Top: Representative FACS plots. *, p<0.05; **, p<0.01; ***, p<0.001. Abbreviations: DMSO, dimethyl sulfoxide; OV-Rx, ionizing radiation-temozolomide therapy 24 hours after oncolytic virus; PE, phycoerythrin; Rx-OV, oncolytic virus 24 hours after ionizing radiation-temozolomide therapy.
(§3) For all studies, the cells and mice received XRT in accordance with the University of Chicago's radiation safety guidelines and protocols. All cells received a single dose of 2 Gy XRT. For animal studies, 10 Gy fractioned dose radiotherapy (2 Gy for 5 consecutive days) was used. The animals were irradiated with a lead cover shielding their entire body, with only their heads exposed. […] For in vivo studies, the mice received 2.5, 5, 10, or 30 mg/kg TMZ via intraperitoneal injection.
(§4) A green fluorescent protein (GFP) expressing HB1.F3-CD cell line was generated as described elsewhere (Ahmed et al. 2011a). GBM43-Fluc cells were plated in 12-well plates and cocultured with HB1.F3-CDGFP cells loaded with CRAd-S-pk7 in the following NSC to glioma cell ratios: 1:0, 1:2, 1:5, 1:10, and 1:50. After 96 hours, the cells were collected, lysed with reporter lysis buffer (Promega, Madison, Wis., http://www.promega.com), and added to luciferase assay reagent (Promega) according to the manufacturer's protocol. Following lysate preparation, the mean fluorescence intensity (MFI) was estimated for each group of cocultured cells using the GloMax 20/20 Luminometer (Promega). The mean luciferase intensity values were represented as the percentage of cells viable compared with mock cells. U251, U87, and GBM39 cell viability was determined using 3-(4,5-dimethylthiazol-2-yl)-2,5-diphenyltetrazolium bromide (MTT) cell proliferation kit (Roche Diagnostics, Mannheim, Germany, http://www.roche-applied-science.com). The viability was subsequently determined by MTT as described by the manufacturer's protocol. Cell viability was expressed as the percentage of cells alive compared with the dimethyl sulfoxide-treated control.
(§5) Next, it was tested whether CRAd-S-pk7 could enhance the therapeutic efficacy of conventional XRT-TMZ. U251 or U87 glioma cells were treated with conventional therapy consisting of 2 Gy XRT and varying concentrations of TMZ (0-1×10^3 µM) or conventional treatment plus 50 IU of CRAd-S-pk7, and cell viability was measured by MTT at 96 hours. […]

U87 = format: cell-based, human; details: for IC50: Homo sapiens, U-87 MG
Description: as §1, §2, §3, §4, §5

[1] = 2 Gy XRT plus 50 IU of CRAd-S-pk7, MTT 96 hours, read-out: IC50 values for TMZ
[2] = treated with XRT (2 Gy) simultaneously, read-out: IC50

## Cn1nnc2c(C(N)=O)ncn2c1=O [TMZ, temozolomide]
GBM39
  IC50: 50 µM
U251; [1]
  IC50: 13 µM
U251; [2]
  IC50: 44 µM
U251; XRT-TMZ
  decrease of TMZ IC50 when OV was added: 31 µM
U87; [1]
  IC50: 10 µM
U87; [2]
  IC50: 25 µM
U87; XRT-TMZ
  decrease of TMZ IC50 when OV was added: 15 µM

Source: patent publication US10709745B2, “Tropic cell based virotherapy for the treatment of cancer” (priority 2013, dated 2020)
